Test results: patent US8809369B2, “Tetrahydroquinoline derivatives” (Hoffmann-La Roche Inc., priority 2011, dated 2014)

Experiments:
[1] = tested on: AMP-activated protein kinase (AMPK); assay: p-AMPK expression level in L6 cell line by Western blot; type: cell-based; details: L6 cells, 2 hours compound treatment
Procedure: (§1) Evaluation of p-AMPK and p-ACC expression level in L6 cell line by Western-Blot
(§2) This method evaluates the changes of AMP-activated protein kinase (AMPK) and ACC (acetyl-CoA carboxylase) activity by small molecular modulators through detecting the level of p-AMPK and p-ACC proteins in L6 cells using Western blot.
(§3) L6 cells are maintained in DMEM medium supplemented with 10% FBS in 10-cm dishes. Prior to compounds treatment, L6 cells are seeded in 12-well-plates at concentration of 3×10^4 cells per well. After 24 hours of incubation in 12-well plates, L6 cells are differentiated by replacing the 10% FBS-DMEM medium with 2% FBS-DMEM. Differentiation usually takes 5 days, during which the culture medium is changed every 2 days.
(§4) The compound concentrations typically range from 32 μM to 0.5 μM with 2-fold dilution in 2 ml DMEM and 7 doses. The final DMSO concentration is 0.4%. Berberine is used as a positive control at concentration of 16 μM. Before compound treatment, starve L6 cells for 2 hours by replacing the medium with DMEM, and then gently aspirate the media from each well. Add the compounds into the plates and incubate at 37 degree 5% CO2 for 2 hours.
(§5) Prepare lysis buffer (RIPA buffer with protease-inhibitors and phosphorate-inhibitors) and place it on ice. After two hour's compound treatment, aspirate the medium from 12-well plates, add 70 ul lysis buffer to each well and keep the plates on ice for 5 min. Then scrape the cell lysate off the plates and transfer it to 1.5 ml eppendorf tubes. Keep the tube on ice for more 10 min, centrifugate the lysate at 13000 rpm, 4 degrees for 15 min and transfer the supernatant to clean tubes.
(§6) Determine protein concentration for each sample using Quickstart Bradford protein quantitation kit. Mix 20 ug protein sample with 4 times loading buffer, heat them at 100° C. for 5 min, store the sample in −80° C. or perform Western blot assay directly. For Western blot assay, load 20 ug samples and 10 ul Pre-stained Protein Maker into 4-12% SDS-PAGE gradient gel. Run the samples at 100 V in the stacking gel and at 120 V in resolving gel until the Bromophenol dye reaches the bottom. Transfer the electrophoresed proteins to a PVDF membrane using Bio-Rad's Transblot for 120 min at 300 mA. Following the completion of transfer, the membrane is blocked with 5% non-fat milk for 2 hours at room temperature before incubated with primary antibody (p-AMPK and p-ACC) at 4° C. overnight. On the next day wash the membrane twice with TBST, add secondary antibody and incubate for 1 hour at room temperature. Wash the membrane twice with TBST. Develop p-AMPK and p-ACC protein expression level on the film in dark room with Amersham ECL plus kit. The bands of each sample are quantitated by Bio-Rad system, The AC1.3 value is analyzed using Prism 5.0.

[2] = tested on: ACC (acetyl-CoA carboxylase); assay: p-ACC expression level in L6 cell line by Western blot; type: cell-based; details: Rattus norvegicus, L6 cells, 2 hours compound treatment, read-out: Activity AC1.3 (ACCp)
Procedure: as §1, §2, §3, §4, §5, §6

Row | Structure (SMILES) | Activity AC1.3 (AMPKp) [1] | EC (1.3-fold) [2]
1 | CC1(C)CC(c2cc(F)cc(N3CCOCC3)c2)Nc2ccc(C(=O)NS(C)(=O)=O)cc21 (stereo not shown) [Example 4, N-[2-(3-fluoro-5-morpholin-4-yl-phenyl)-4,4-dimethyl-1,2,3,4-tetrahydro-quinoline-6-carbonyl]-methanesulfonamide] | 6.76 µM | 6.23 µM
2 | CC1(C)CC(c2cccc(N3CCOCC3)c2)Nc2ccc(S(=O)(=O)N3CCOCC3)cc21 (stereo not shown) [Example 12, 4,4-Dimethyl-6-(morpholine-4-sulfonyl)-2-(3-morpholin-4-yl-phenyl)-1,2,3,4-tetrahydro-quinoline] | 5.70 µM | 1.86 µM
3 | CC1(C)CC(c2cccc(N3CCOCC3)c2)Nc2ccc(S(=O)(=O)NC3CCC3)cc21 (stereo not shown) [Example 15, 4,4-Dimethyl-2-(3-morpholin-4-yl-phenyl)-1,2,3,4-tetrahydro-quinoline-6-sulfonic acid cyclobutylamide] | 0.1 µM | 0.1 µM
4 | CC1(C)CC(c2cc(F)cc(N3CCOCC3)c2)Nc2ccc(S(=O)(=O)NC3CCC3)cc21 (stereo not shown) [Example 16, 2-(3-Fluoro-5-morpholin-4-yl-phenyl)-4,4-dimethyl-1,2,3,4-tetrahydro-quinoline-6-sulfonic acid cyclobutylamide] | 19.4 µM | 3.21 µM
5 | CC1(C)CC(c2cccc(-c3ccccc3O)c2)Nc2ccc(S(=O)(=O)NC3CCC3)cc21 (stereo not shown) [Example 17, 2-(2′-Hydroxy-biphenyl-3-yl)-4,4-dimethyl-1,2,3,4-tetrahydro-quinoline-6-sulfonic acid cyclobutylamide] | 0.41 µM | 0.05 µM
6 | CC1(C)CC(c2cccnc2)Nc2ccc(C(=O)NS(C)(=O)=O)cc21 (stereo not shown) [Example 18, N-(4,4-dimethyl-2-pyridin-3-yl-1,2,3,4-tetrahydro-quinoline-6-carbonyl)-methanesulfonamide] | 7.98 µM | 20 µM
7 | Cc1ccc(N2CCOCC2)cc1C1CC(C)(C)c2cc(C(=O)NS(C)(=O)=O)ccc2N1 (stereo not shown) [Example 22, N-[4,4-dimethyl-2-(2-methyl-5-morpholin-4-yl-phenyl)-1,2,3,4-tetrahydro-quinoline-6-carbonyl]-methanesulfonamide] | 0.02 µM | 0.16 µM
8 | CC1(C)CC(c2cccc(N3CCOC3=O)c2)Nc2c(C(=O)NS(=O)(=O)C3CC3)cc(Cl)cc21 (stereo not shown) [Example 65, Cyclopropanesulfonic acid {6-chloro-4,4-dimethyl-2-[3-(2-oxo-oxazolidin-3-yl)-phenyl]-1,2,3,4-tetrahydro-quinoline-8-carbonyl}-amide] | – | 12.8 µM
9 | CC1(C)CC(c2cccc(N3CCCC3)c2)Nc2c(C(=O)NS(C)(=O)=O)cc(F)cc21 (stereo not shown) [Example 69, N-[6-fluoro-4,4-dimethyl-2-(3-pyrrolidin-1-yl-phenyl)-1,2,3,4-tetrahydro-quinoline-8-carbonyl]-methanesulfonamide] | – | 0.1 µM
10 | CC1(C)CC(c2cccc(N3CCCC3)c2)Nc2c(C(=O)NS(=O)(=O)C3CC3)cc(F)cc21 (stereo not shown) [Example 70, Cyclopropanesulfonic acid [6-fluoro-4,4-dimethyl-2-(3-pyrrolidin-1-yl-phenyl)-1,2,3,4-tetrahydro-quinoline-8-carbonyl]-amide] | – | 0.57 µM
11 | CC(C)(C)c1ccc(-c2cncc(C3CC(C)(C)c4cc(C(=O)NS(C)(=O)=O)ccc4N3)c2)cc1 (stereo not shown) [Example 73, N-{2-[5-(4-tert-butyl-phenyl)-pyridin-3-yl]-4,4-dimethyl-1,2,3,4-tetrahydro-quinoline-6-carbonyl}-methanesulfonamide] | – | 0.1 µM
12 | CN(C(=O)c1ccc2c(c1)C(C)(C)CC(c1cccc(N3CCOCC3)c1)N2)S(=O)(=O)C1CC1 (stereo not shown) [Example 75, Cyclopropanesulfonic acid [4,4-dimethyl-2-(3-morpholin-4-yl-phenyl)-1,2,3,4-tetrahydro-quinoline-6-carbonyl]-methyl-amide] | – | 0.3 µM
